In patent US7846944B2, “Pyrazolo-pyridinone compounds and methods of use thereof” (Amgen Inc., priority 2007, dated 2010):

How the values were obtained:
recombinant human p38α = recombinant human p38α (Homo sapiens, UniProt Q16539); experiment: Purified and activated recombinant human p38α HTRF kinase assay; assay type: biochemical; conditions: 1 nM p38α, 50 μM ATP, GST-ATF2 substrate, read-out: p38a IC50
Method: Purified and Activated Recombinant Human p38α Assay
• Kinase Reaction Buffer: Kinase reaction buffer for p38α HTRF assays consists of 50 mM Tris-pH 7.5, 5 mM MgCl2, 0.1 mg/mL BSA, 100 μM Na3VO4 and 0.5 mM DTT. • HTRF Detection Buffer: HTRF detection buffer contains 100 mM HEPES-pH 7.5, 100 mM NaCl, 0.1% BSA, 0.05% Tween-20, and 10 mM EDTA. • Serial Dilution of Compounds: Compounds were dissolved in 100% DMSO and serially diluted (3 fold, 10 point) in a polypropylene 96-well microtiter plate (drug plate). The final starting concentration of compounds in the p38α enzymatic assays was 1 μM. Columns 6 and 12 (HI controls and LO controls respectively) in the drug plate were reserved as controls and contained only DMSO. • Kinase Reaction The p38α kinase reactions were carried out in a polypropylene 96-well black round bottom assay plate in total volume of 30 μL kinase reaction buffer. Appropriate concentration of purified and activated enzyme (recombinant human) was mixed with indicated concentration of ATP and 100 nM GST-ATF2-Avitag, in the presence or absence (HI control) of Compound. See table below for actual concentrations. In the absence of substrate, the background was measured as LO control. The reaction was allowed to incubate for 1 hour at RT. • Assay Reagent Concentrations: The final reagent concentrations were 1 nM p38α and 50 μM ATP. […] After 60 minutes incubation at room temperature, the assay plate was read in a Discovery Plate Reader. The wells were excited with coherent 320 nm light and the ratio of delayed ([…] post excitation) emissions at […] (native europium fluorescence) and 665 nm (europium fluorescence transferred to allophycocyanin—an index of substrate phosphorylation) was determined (Park et al, 1999). • Data Analysis: The proportion of substrate phosphorylated in the kinase reaction in the presence of compound compared with that phosphorylated in the presence of DMSO vehicle alone (HI control) was calculated using the formula: % control (POC)=(compound−average LO)/(average HI−average LO)*100. Data (consisting of POC and inhibitor concentration in μM) was fitted to a 4-parameter equation (y=A+((B−A)/(1+((x/C)^D))), where A is the minimum y (POC) value, B is the maximum y (POC), C is the x (compound concentration) at the point of inflection and D is the slope factor, using a Levenburg-Marquardt non-linear regression algorithm.
The inhibition constant (Ki) of the inhibitor was estimated from the IC50 (compound concentration at the point of inflection C) using the Cheng-Prussof equation: Ki=IC50/(1+S/Km), where S is the ATP substrate concentration, and Km is the Michaelis constant for ATP as determined experimentally. All results were expressed as the mean±the standard error of the mean. Data acquisition and non-linear regression algorithms were performed using Activity Base v5.2 and XL-fit software v4.1 respectively. All data was archived using Activity Base v5.2 software.

[1] = tested on: TNF-α secretion by LPS-treated THP1 cells; experiment: Lipopolysaccharide-activated THP1 cell TNF production assay; assay type: cell-based; conditions: Homo sapiens, THP-1; LPS, 3 hours, THP1 cells; read-out: IC50 in the THP-1 cellular TNF production assay
Method: Lipopolysaccharide-Activated THP1 Cell TNF Production Assay
THP1 cells were resuspended in fresh THP1 media (RPMI 1640, 10% heat-inactivated FBS, 1×PGS, 1×NEAA, plus 30 μM βME) at a concentration of 1.5×10^6 cells per mL. One hundred microliters of cells per well were plated in a polystyrene 96-well tissue culture plate. 1.5 micrograms per mL of bacterial LPS was prepared in THP1 media and transferred to the first 11 columns of a 96-well polypropylene plate. Column 12 contained only THP1 media for the LO control. Compounds were dissolved in 100% DMSO and serially diluted 3 fold in a polypropylene 96-well microtiter plate (drug plate). Columns 6 and 12 were reserved as controls (HI controls and LO controls respectively) and contained only DMSO. 10 μL of LPS followed by one microliter of inhibitor compound from the drug plate was transferred to the cell plate. The treated cells were induced to synthesize and secrete TNF-α in a 37° C. humidified incubator with 5% CO2 for 3 hours. Fifty microliters of conditioned media was transferred to a 96-well MULTI-ARRAY™ 96-well small spot plate—custom coated with MAB610 containing 100 μL of 2× Read Buffer P supplemented with 0.34 nM AF210NA polyclonal Ab labeled with ruthenium (MSD-Sulfo-TAG™-NHS ester). After an overnight incubation at room temperature with shaking, the reaction was read on the Sector Imager™ 6000. […] The amount of secreted TNF-α in the presence of AMG compounds compared with that in the presence of DMSO vehicle alone (HI control) was calculated using the formula: % control (POC)=(cpd−average LO)/(average HI−averageLO)*100. Data (consisting of POC and inhibitor concentration in μM) was fitted to a 4-parameter equation (y=A+((B−A)/(1+((x/C)^D))), where A is the minimum y (POC) value, B is the maximum y (POC), C is the x (cpd concentration) at the point of inflection and D is the slope factor) using a Levenburg-Marquardt non-linear regression algorithm.

recombinant human p38α, sequence (Q16539 whole entry): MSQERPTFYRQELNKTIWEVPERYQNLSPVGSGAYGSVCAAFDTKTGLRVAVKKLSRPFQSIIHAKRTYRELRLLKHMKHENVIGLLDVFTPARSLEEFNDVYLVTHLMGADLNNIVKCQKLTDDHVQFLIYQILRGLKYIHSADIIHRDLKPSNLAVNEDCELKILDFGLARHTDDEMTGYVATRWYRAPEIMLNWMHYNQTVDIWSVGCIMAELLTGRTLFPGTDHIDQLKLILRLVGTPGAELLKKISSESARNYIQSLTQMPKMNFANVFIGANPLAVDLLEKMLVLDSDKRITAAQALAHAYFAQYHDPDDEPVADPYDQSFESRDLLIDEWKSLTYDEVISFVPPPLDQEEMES

| SMILES | IC50 (recombinant human p38α) | IC50 [1] |
| --- | --- | --- |
| Cc1c(F)cc(C(N)=O)cc1-c1cc2cnn(-c3ccccc3Cl)c2n(C)c1=O [Example 1, 3-(1-(2-chlorophenyl)-7-methyl-6-oxo-6,7-dihydro-1H-pyrazolo[3,4-b]pyridin-5-yl)-5-fluoro-4-methylbenzamide] | 2.3 nM | ≤ 175 nM |
| CCn1c(=O)c(-c2cc(C(=O)NC3CC3)cc(F)c2C)cc2cnn(-c3ccccc3F)c21 [Example 6, N-cyclopropyl-3-(7-ethyl-1-(2-fluorophenyl)-6-oxo-6,7-dihydro-1H-pyrazolo[3,4-b]pyridin-5-yl)-5-fluoro-4-methylbenzamide] | 2.5 nM | ≤ 175 nM |
| Cc1c(F)cc(C(=O)NC2CC2)cc1-c1cc2cnn(-c3ccccc3F)c2n(C)c1=O [Example 9, N-cyclopropyl-3-fluoro-5-(1-(2-fluorophenyl)-7-methyl-6-oxo-6,7-dihydro-1H-pyrazolo[3,4-b]pyridin-5-yl)-4-methylbenzamide] | 2.2 nM | ≤ 175 nM |
| Cc1ccc(C(=O)Nc2ccnn2C)cc1-c1cc2cnn(-c3c(F)cccc3F)c2n(C)c1=O [Example 10, 3-(1-(2,6-difluorophenyl)-7-methyl-6-oxo-6,7-dihydro-1H-pyrazolo[3,4-b]pyridin-5-yl)-4-methyl-N-(1-methyl-1H-pyrazol-5-yl)benzamide] | 2.9 nM | ≤ 175 nM |
| Cc1c(F)cc(C(=O)NC2CC2)cc1-c1cc2cnn(-c3ccc(F)cc3F)c2n(C)c1=O [Example 11, N-cyclopropyl-3-(1-(2,4-difluorophenyl)-7-methyl-6-oxo-6,7-dihydro-1H-pyrazolo[3,4-b]pyridin-5-yl)-5-fluoro-4-methylbenzamide] | 2.6 nM | ≤ 175 nM |
| Cc1ccc(C(=O)NC2CC2)cc1-c1cc2cnn(-c3ccccc3C)c2n(C)c1=O [Example 14, N-cyclopropyl-4-methyl-3-(7-methyl-1-(2-methylphenyl)-6-oxo-6,7-dihydro-1H-pyrazolo[3,4-b]pyridin-5-yl)benzamide] | 4.2 nM | ≤ 175 nM |
| Cc1ccccc1-n1ncc2cc(-c3cc(C(=O)NC4CC4)cc(F)c3C)c(=O)n(C)c21 [Example 15, N-cyclopropyl-3-fluoro-4-methyl-5-(7-methyl-1-(2-methylphenyl)-6-oxo-6,7-dihydro-1H-pyrazolo[3,4-b]pyridin-5-yl)benzamide] | 5.2 nM | ≤ 175 nM |
| Cc1c(F)cc(C(=O)NC2CC2)cc1-c1cc2cnn(C(C)C)c2n(C)c1=O [Example 17, N-cyclopropyl-3-fluoro-4-methyl-5-(7-methyl-1-(1-methylethyl)-6-oxo-6,7-dihydro-1H-pyrazolo[3,4-b]pyridin-5-yl)benzamide] | – | ≤ 175 nM |
| Cc1ccc(C(=O)Nc2ccon2)cc1-c1cc2cnn(-c3c(F)cccc3F)c2n(C)c1=O [Example 18, 3-(1-(2,6-difluorophenyl)-7-methyl-6-oxo-6,7-dihydro-1H-pyrazolo[3,4-b]pyridin-5-yl)-N-3-isoxazolyl-4-methylbenzamide] | 3 nM | ≤ 175 nM |
| Cc1cnc(C(=O)NC2CC2)cc1-c1cc2cnn(-c3c(F)cccc3F)c2n(C)c1=O [Example 19, N-cyclopropyl-4-(1-(2,6-difluorophenyl)-7-methyl-6-oxo-6,7-dihydro-1H-pyrazolo[3,4-b]pyridin-5-yl)-5-methyl-2-pyridinecarboxamide] | 18 nM | ≤ 175 nM |
| Cc1c(F)cc(C(=O)NC(C)C)cc1-c1cc2cnn(-c3c(F)cccc3F)c2n(C)c1=O [Example 21, 3-(1-(2,6-difluorophenyl)-7-methyl-6-oxo-6,7-dihydro-1H-pyrazolo[3,4-b]pyridin-5-yl)-5-fluoro-4-methyl-N-(1-methylethyl)benzamide] | 7 nM | ≤ 175 nM |
| CNC(=O)c1cc(F)c(C)c(-c2cc3cnn(-c4c(F)cccc4F)c3n(C)c2=O)c1 [Example 22, 3-(1-(2,6-difluorophenyl)-7-methyl-6-oxo-6,7-dihydro-1H-pyrazolo[3,4-b]pyridin-5-yl)-5-fluoro-N,4-dimethylbenzamide] | 6.2 nM | ≤ 175 nM |
| Cc1c(F)cc(C(=O)NC2CC2)cc1-c1cc2cnn(-c3cc(F)ccc3F)c2n(C)c1=O [Example 23, N-cyclopropyl-3-(1-(2,5-difluorophenyl)-7-methyl-6-oxo-6,7-dihydro-1H-pyrazolo[3,4-b]pyridin-5-yl)-5-fluoro-4-methylbenzamide] | 3.9 nM | ≤ 175 nM |
| Cc1ccc(C(=O)NC2CC2)cc1-c1cc2cnn(-c3cc(F)ccc3F)c2n(C)c1=O [Example 24, N-cyclopropyl-3-(1-(2,5-difluorophenyl)-7-methyl-6-oxo-6,7-dihydro-1H-pyrazolo[3,4-b]pyridin-5-yl)-4-methylbenzamide] | 6.2 nM | ≤ 175 nM |
| Cc1ccc(C(=O)NC2(C)CC2)cc1-c1cc2cnn(-c3cc(F)ccc3F)c2n(C)c1=O [Example 25, 3-(1-(2,5-difluorophenyl)-7-methyl-6-oxo-6,7-dihydro-1H-pyrazolo[3,4-b]pyridin-5-yl)-4-methyl-N-(1-methylcyclopropyl)benzamide] | 1.1 nM | ≤ 175 nM |
| Cc1ccc(C(=O)Nc2ccon2)cc1-c1cc2cnn(-c3cc(F)ccc3F)c2n(C)c1=O [Example 26, 3-(1-(2,5-difluorophenyl)-7-methyl-6-oxo-6,7-dihydro-1H-pyrazolo[3,4-b]pyridin-5-yl)-N-3-isoxazolyl-4-methylbenzamide] | 2.3 nM | ≤ 175 nM |
| Cc1ccc(C(=O)Nc2nccs2)cc1-c1cc2cnn(-c3c(F)cccc3F)c2n(C)c1=O [Example 28, 3-(1-(2,6-difluorophenyl)-7-methyl-6-oxo-6,7-dihydro-1H-pyrazolo[3,4-b]pyridin-5-yl)-4-methyl-N-1,3-thiazol-2-ylbenzamide] | 1.1 nM | ≤ 175 nM |
| Cn1c(=O)c(-c2cc(C(=O)NC3CC3)ccc2Cl)cc2cnn(-c3cc(F)ccc3F)c21 [Example 29, 4-chloro-N-cyclopropyl-3-(1-(2,5-difluorophenyl)-7-methyl-6-oxo-6,7-dihydro-1H-pyrazolo[3,4-b]pyridin-5-yl)benzamide] | – | ≤ 175 nM |
| Cc1ccc(C(=O)NC2(C)CC2)cc1-c1cc2cnn(-c3c(F)cccc3F)c2n(C)c1=O [Example 30, 3-(1-(2,6-difluorophenyl)-7-methyl-6-oxo-6,7-dihydro-1H-pyrazolo[3,4-b]pyridin-5-yl)-4-methyl-N-(1-methylcyclopropyl)benzamide] | – | ≤ 175 nM |
